Source: paper PMC3822755 (Bioorganic & medicinal chemistry letters, 2013)

Legend:
[1] = system: VSV-GP (vesicular stomatitis virus particle bearing the EBOV GP); type: cell-based
[2] = system: VSV-G (VSV bearing its native envelope glycoprotein G); type: cell-based, vesicular stomatitis virus; Vero host cells

Compound | activity against VSV-GP entry (in words) [1] | activity against VSV-G (in words) [2] | inhibition of VSV-GP entry [1] [%] | potency against VSV-GP compared with 1-Chol and 2-Chol ([1]; 20 µM)
CC(C)CCC[C@@H](C)[C@H]1CC[C@H]2[C@@H]3CC=C4C[C@@H](O)CC[C@]4(C)[C@H]3CC[C@]12C [cholesterol, reference compound] | relatively modest effects | – | – | –
KKKKGSGC(Chol) ^b [Peptide 3-Chol] | active | active | > 90 | much less potent
